How the values were obtained:
male Wistar rats = experiment: Experiment 3: left ventricular diastolic function by tissue Doppler imaging; format: in vivo, rat; details: 0.3 mg/kg i.v. over 30 s then 0.02 mg/kg/min for 20 min
Experimental: In this experiment on the invention, two 9-week old male Wistar rats weighing 310 and 320 g were used. The rats were anesthetized with 1,000 mg/kg of urethane and 80 mg/kg of α-chloralose by subperitoneal injection, and natural respiration was maintained. In this experiment, 100 mg of the compound was dissolved in 1 ml of dimethylsulfoxide (DMSO) and the resulting DMSO solution was stored at 4° C. Norepinephrine solution was prepared by dissolving 1 mg of norepinephrine in 41 μl of distilled water.
Similarly to Test drug 1, this study was performed at room temperature of 20 to 25° C., and also similarly to Test drug 1, continuous infusion catheters of calcium chloride solution or norepinephrine solution containing calcium chloride were inserted into the right external jugular vein and microchip catheters (SPC-320, Millar) were inserted into the aorta via the right common arteries.
A 1-lead electrocardiogram was recorded, and blood pressure, pulse, and electrocardiogram of the rats were monitored for 15 minutes and allowed to stabilize. In the preparation step, calcium chloride dissolved in 5% dextrose solution was infused into the right external jugular vein for 25 minutes at 16.6 μl/min (9.0 mg/kg/min of calcium chloride).
Secondly, immediate injection (intravenous injection) of a solution containing calcium chloride and norepinephrine without changes in dosage was started via the right external jugular vein at a rate of 40 μg/kg/min. After the start of administration, calcium chloride and norepinephrine were continuously injected in the form of a norepinephrine solution containing calcium chloride. Furthermore, with continuous injection of calcium chloride and norepinephrine (in the form of a norepinephrine solution containing calcium chloride), 0.2 ml of 1% DSMO was administered alone over 30 seconds to the first rat (weight: 310 g) as a control via the right femoral vein, 5 minutes after commencement of intravenous injection of calcium chloride and norepinephrine (in the form of a norepinephrine solution containing calcium chloride); this rat was defined as Control 4. Similarly to Control 4, with continuous injection of calcium chloride and norepinephrine (in the form of a norepinephrine solution containing calcium chloride) 0.2 ml of 1% DSMO solution containing 0.3 mg/kg of the test drug in the invention was administered over 30 seconds to a second rat (weight: 320 g; Test drug 3) via its right femoral vein, followed by administration for 20 minutes at 0.02 mg/kg/min, 5 minutes after intravenous injection of calcium chloride and norepinephrine (in the form of a norepinephrine solution containing calcium chloride). The left ventricular diastolic function of each rat was examined using tissue Doppler ultrasonography. Ultrasonic diagnostic equipment (Toshiba Powervision SSA-380APSK-70LT, Toshiba Corporation) was used and the rats were examined using ultrasound at 10 MHz. Firstly, the precordial region of each rat was shaved, and an ECHO probe was placed on the cardiac apex. The long axis of the left ventricle of the cardiac apex was imaged, a sample volume for pulsed-wave Doppler was established at the base of the posterior mitral leaflet, and the velocity of the left ventricular posterior wall motion [Ea wave (m/sec)] was measured at diastole as the left ventricular diastolic function. In this experiment, the left ventricular diastolic function is defined as the ratio of the velocity of the left ventricular wall motion at diastole before intravenous injection of norepinephrine (before administration; i.e. a normal left ventricular wall) determined using tissue Doppler imaging, or the ratio of the velocity of the left ventricular wall motion at diastole after intravenous injection of norepinephrine (after administration).

[1] = test system: binding of troponin I to the actin-tropomyosin complex; experiment: Experiment 4 and comparison example: co-precipitation (binding) of troponin I with the actin-tropomyosin complex in the presence of EGTA; design: species or system swine; details: 10 mM EGTA, 100,000×g 120 min 25° C.
Experimental: The actin-tropomyosin complex and the troponin C-I complex are usually detected by analyzing the precipitate obtained by ultracentrifugation of a mixture containing the actin-tropomyosin complex and the troponin C-I complex for 120 minutes at 100,000×g at 25° C. The binding of the troponin C-I complex to the actin-tropomyosin complex in muscle tissues can be confirmed by the detected actin-tropomyosin complex and the detected troponin C-I complex. For example, when a mixture containing the actin-tropomyosin complex and the troponin C-I complex is ultracentrifuged in the presence of EGTA as a calcium chelating agent (in other words, in the absence of calcium ions), the actin-tropomyosin complex and the troponin C-I complex combine each other to precipitate together. Detection of troponin I in the precipitate using SDS-gel electrophoresis allows confirmation that the precipitate contains a complex formed by the actin-tropomyosin complex and the troponin C-I complex.
A precipitate due to binding of the actin-tropomyosin complex and troponin I is usually not formed when a mixture containing the actin-tropomyosin complex, troponin and propranolol (a β-blocker) used as a therapeutic agent for heart failure is ultracentrifuged at 100,000×g for 120 minutes 25° C.
Swine muscle-derived actin, chicken gizzard-derived tropomyosin and swine myocardium-derived troponin used in this experiment were purchased from Sigma-Aldrich Corporation, and other unspecified reagents used in this experiment were purchased from Wako Pure Chemical Industries Ltd.
A 500 μl sample was prepared by adding 4.2 μg of actin, 2.1 μg of tropomyosin and 14 μg of troponin to 500 μl of a reaction solution containing 60 mM KCl, 20 mM MOPS (3-morpholinopropanesulfonic acid), 2 mM of MgCl2, 0.05 μg of pepstatin A, and 15 mM 2-mercaptoethanol. After centrifugation of this sample at 2,000×g for 10 minutes at 25° C., the precipitate was removed and the resulting supernatant was distributed to separate test tubes containing 10 mM of EGTA, and each tube was determined as a test sample.
Each test sample was reacted for 120 minutes at 25° C. and centrifuged at 100,000×g for 120 minutes at 25° C., and the supernatants were removed. After reaction solution was gently added to the removed precipitate so as not to suspend the precipitate, the precipitate was again removed by suction, washed, and determined as a test precipitate.
A sample buffer for polyacrylamide gel electrophoresis (SDS-PAGE) was added to each washed test precipitate and mixed well to suspend the test precipitate. The resulting suspension was electrophoresized on a gel (PAG MINI “No. 1” 10/20) for about 1 hour at 40 mA. After electrophoresis, the suspension was silver-stained using “Daiichi” 2D-silver staining reagent (Daiichi Pure Chemicals Co., Ltd), and washed with distilled water and dried. The amount of precipitate in each silver-stained protein band obtained by gel electrophoresis was quantitated using a densitometer.
The amounts of precipitate of troponin I in the second to fifth test precipitates were calculated as ratios of the amount of precipitate of troponin I in the first test precipitate, which was obtained without the compound (the concentration of the compound was 0 M).
The affinity of troponin I for the actin-tropomyosin complex was measured using the same method as in Experiment 4, but using propranolol (a β-blocker which is used as a therapeutic agent for heart failure) for comparison with the compound in the invention.
A 500 μl sample was prepared by adding 4.2 μg of actin, 2.1 μg of tropomyosin and 14 μg of troponin I to 500 μl of a reaction solution containing 60 mM KCl, 20 mM MOPS (3-morpholinopropanesulfonic acid), 2 mM MgCl2, 0.05 μg of pepstatin A, and 15 mM 2-mercaptoethanol. […]

COc1ccc2c(c1)CN(C(=O)CCN1CCC(Cc3ccccc3)CC1)CCS2 [the compound, 4-[3-(4-benzylpiperidine-1-yl)propionyl]-7-methoxy-2,3,4,5-tetrahydro-1,4-benzothiazepine]
Ratio of the velocity of the left ventricular wall motion at diastole (male Wistar rats; 0 minutes (just before the start of intravenous injection of the test drug)): 1.00 | Ratio of the velocity of the left ventricular wall motion at diastole (male Wistar rats; CaCl2 + norepinephrine infusion, 5 minutes after the start of test drug): 1.02 | Ratio of the velocity of the left ventricular wall motion at diastole (male Wistar rats; CaCl2 + norepinephrine infusion, 10 minutes after the start of test drug): 1.04 | Ratio of the velocity of the left ventricular wall motion at diastole (male Wistar rats; CaCl2 + norepinephrine infusion, 15 minutes after the start of test drug): 1.00 | Ratio of the velocity of the left ventricular wall motion at diastole (male Wistar rats; CaCl2 + norepinephrine infusion, 20 minutes after the start of test drug): 1.00 | Ratio of the velocity of the left ventricular wall motion at diastole (male Wistar rats; CaCl2 + norepinephrine infusion, 25 minutes after the start of test drug): 0.94 | Ratio of the velocity of the left ventricular wall motion at diastole (male Wistar rats; CaCl2 + norepinephrine infusion, 30 minutes after the start of test drug): 0.95 | Ratio of the velocity of the left ventricular wall motion at diastole (male Wistar rats; Ea wave relative to before norepinephrine, 5 minutes before test drug (just before the start of norepinephrine), baseline): 1.00 | Precipitate of troponin I (ratio to the sample without drug) ([1]; drug concentration 10^−4 mol): 2.8 | Precipitate of troponin I (ratio to the sample without drug) ([1]; drug concentration 10^−5 mol): 2.2 | Precipitate of troponin I (ratio to the sample without drug) ([1]; drug concentration 10^−6 mol): 1.8 | Precipitate of troponin I (ratio to the sample without drug) ([1]; drug concentration 10^−7 mol): 1.2
